Values joined by “and” are separate entries in the source; they are usually repeats but may differ in a detail not shown here. Identical values can stand only once.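 Step 1: Grow cells in 96-well plates. Step 2: Expose to compound for 48 hours at 5 concentrations. Step 3: Interpolate endpoints linearly; if unreached, use highest concentration. The concentration for 50% growth inhibition is given as GI50. Definition used: TGI = concentration required for complete inhibition of growth.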
Legend:
Test in all cases: DTP human tumour cell line panel, 48 h
[1] = tested on: MDA-N
[2] = tested on: XF 498 CNS
[3] = tested on: LXFL 529 NSCLC
[4] = tested on: SNB-78 CNS
[5] = tested on: DMS 114 small cell lung
[6] = tested on: KM20L2 colon
[7] = tested on: DMS 273 small cell lung
[8] = tested on: HOP-18 NSCLC
[9] = tested on: RXF-631 renal

Structure (SMILES)	TGI [1]	TGI [2]	TGI [3]	TGI [4]	TGI [5]	TGI [6]	TGI [7]	TGI [8]	TGI [9]	GI50 [4]
CCC1=C(c2ccc(OC)cc2)CC[C@]2(CCNC2=O)[C@@H]1C	58.3 µM									
COc1ccc2c3c(c(C(=O)O)oc13)C(CCC(=O)O)CC2 (centres undefined)		> 100 µM	> 100 µM	> 100 µM	> 100 µM	> 100 µM	> 100 µM	> 100 µM		
O=c1c2cccc3cccc(c4n1CCCN=4)c32		> 100 µM	> 100 µM	> 100 µM	> 100 µM	> 100 µM	> 100 µM	> 100 µM	> 100 µM	
Cn1c(CC(O)c2nc3ccccc3n2C)nc2ccccc21 (centres undefined)	> 100 µM									
CN(C)CCNC(=O)c1cccc2cc3ccc4ccccc4c3nc12		0.237 µM	0.665 µM	12.5 µM		0.988 µM	0.163 µM	0.665 µM		
C1CCN2CC3CONC3C2C1 (centres undefined)		> 100 µM	> 100 µM	> 100 µM	> 100 µM	> 100 µM	> 100 µM			
CC(C)(C)c1cc(C(OCCl)(C(F)(F)F)C(F)(F)F)c2c(c1)C(C(F)(F)F)(C(F)(F)F)OC21c2ccccc2C(=O)c2ccccc21		> 100 µM	> 100 µM	> 100 µM	> 100 µM	> 100 µM	> 100 µM	> 100 µM	> 100 µM	
CC1CCC2c3c([nH]c4ccccc34)C3C(=O)N(c4ccccc4)C(=O)C3C2C1 (centres undefined)		7.55 µM	> 250 µM	42.2 µM and > 250 µM		> 250 µM		69.9 µM	> 250 µM	35.2 µM
CC1=C(C(=O)CC(=O)C(=O)Nc2ccccc2C)Sc2ccccc2N1				> 100 µM		> 100 µM	> 100 µM	> 100 µM		
O=[N+]([O-])c1ccc(/C=C\c2ccc3c(c2)OCO3)c([N+](=O)[O-])c1	22.4 µM									
O=C(Nc1ccc(Cl)c(Cl)c1)C1C(=O)N(c2ccc(Cl)c(Cl)c2)C(=O)/C1=N\O (centres undefined)			> 100 µM	> 100 µM	83.7 µM	> 100 µM	> 100 µM	> 100 µM		
C=CC(C)(O)CCC1C(=C)C(O)CC2C(C)(C)CCCC12C (centres undefined)	34.6 µM									
O=C1c2ccoc2C(=O)c2oc(=O)ccc21		40 µM	15.2 µM	42.8 µM	4.42 µM	> 65.4 µM	31.6 µM	36 µM		
Cn1cc(NC(=O)c2cc(NC(=O)CCCCCCCC(=O)Nc3cc(C(=O)Nc4cc(C(=O)NCCC(=N)N)n(C)c4)n(C)c3)cn2C)cc1C(=O)NCCC(=N)N		56.1 µM	28.8 µM	93.5 µM	11.9 µM	> 100 µM	25 µM	> 100 µM	> 100 µM	
NC(=O)C(=O)Cc1nc2ccccc2s1		> 100 µM	> 100 µM	> 100 µM	> 100 µM	> 100 µM		> 100 µM		
O=c1[nH]c(=O)n(C2CC(O)C(O)C(CO)O2)cc1F (centres undefined)		> 100 µM	> 100 µM	> 100 µM	> 100 µM	> 100 µM		> 100 µM	> 100 µM	
Cc1c(C)c2ccc(OC(C)C(=O)O)cc2oc1=O (centres undefined)		99 µM	> 100 µM	> 100 µM	> 100 µM	> 100 µM		> 100 µM	> 100 µM	
Nc1c(C(=O)Nc2ccccc2O)[n+]([O-])c2ccccc2[n+]1[O-]			> 100 µM	> 100 µM	63.5 µM	> 100 µM	> 100 µM	> 100 µM	> 100 µM	
N=C(N)c1ccc(OCCCCCOc2ccc(C(=N)N)cc2)cc1	26.5 µM and 36 µM									
